Experimental data reported in patent US4937237A, “Phosphinic acid substituted aromatic steroids as inhibitors of steroid 5-60 -reductase” (SmithKline Beckman Corporation, priority 1988, dated 1990).
Read-outs that look alike come from different tables or passages of the source.

Experiments:
[1] = molecular target: T1, human steroid 5-α-reductase (Homo sapiens, UniProt P31213); assay: Potency in inhibiting human steroid 5-α-reductase from hyperplastic human prostates ([14C]-testosterone conversion, Dixon plot); format: biochemical
T1 construct: Frozen human prostates were thawed and minced into small pieces; from tissue; host or cells: hyperplastic human prostate, 140,000×g particulate fraction
T1 sequence (P31213 1-254): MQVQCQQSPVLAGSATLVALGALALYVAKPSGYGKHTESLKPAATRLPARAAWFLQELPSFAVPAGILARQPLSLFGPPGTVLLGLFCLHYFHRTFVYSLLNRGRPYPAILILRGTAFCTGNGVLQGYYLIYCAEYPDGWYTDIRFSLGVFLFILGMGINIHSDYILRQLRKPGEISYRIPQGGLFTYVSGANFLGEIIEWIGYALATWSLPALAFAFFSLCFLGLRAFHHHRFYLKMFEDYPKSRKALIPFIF
Method: A compound of the invention, 17β-(N,N-diisopropylcarboxamide)-estr-1,3,5(10)-triene-3-phosphinic acid, was tested for potency in inhibiting human steroid 5-α-reductase using tissue from hyperplastic human prostates. In determining potency in inhibiting the human enzyme, the following procedure was employed:
Frozen human prostates were thawed and minced into small pieces (5 mm^3). The tissue was homogenized in 3 to 5 volumes of 20 mM potassium phosphate buffer, pH 6.5, containing 0.33M sucrose, 1 mM dithiothreitol, and 50 μM NADPH with a Brinkmann Polytron (Sybron Corporation, Westbury, N.Y.). The solution was subjected to sonication for 3 to 5 minutes with a Sonifier (Branson Sonic Power Co.) followed by hand homogenization in a glass-to-glass Dounce homogenizer (Kontes Glass Company, Vineland, N.J.). […]
A constant amount of [^14 C]-testosterone (52 to 55 mCi/mmol, New England Nuclear, Boston, MA) in ethanol and varying amounts of the potential inhibitor in ethanol were deposited in test tubes and concentrated to dryness in a SAVANT Speed Vac. […] The radiochemical content in the bands of the substrate and the products was determined with a BIOSCAN Imaging Scanner (Bioscan, Inc., Washington, D.C.). The percent of recovered radiolabel converted to product was calculated, from which enzyme activity was determined. […]

5-α-Reductase = details: cited from earlier work; for Ki / Reversibility of inhibition (with Ki): Table I; for Type of inhibition of steroid 5-α-reductase, in words: literature
[2] = test system: human steroid 5-α-reductase; details: substrate (testosterone), separate experiment

Compound | Ki (5-α-Reductase; literature references) [nM] | Reversibility of inhibition (with Ki) (5-α-Reductase; literature references) | also measured
CC(C)N(C(=O)[C@H]1CC[C@H]2[C@@H]3CCc4cc([PH](=O)O)ccc4[C@H]3CC[C@]12C)C(C)C [17β-(N,N-Diisopropylcarboxamide)-estr-1,3,5(10)-triene-3-phosphinic Acid] | – | – | Ki [1]: 13 nM; Potency as inhibitor of human steroid 5-α-reductase, in words ([1]; concluded from low Ki): potent inhibitor
C[C@]12CC[C@H]3[C@@H](CCC4=CC(=O)CC[C@@]43C)[C@@H]1CC[C@@H]2C(=O)O [(1)] | 1100 | Reversible | –
CC(=O)C1CCC2C3CC=C=CC(=O)CCC(=O)C3CCC12C (stereo not drawn) [(2)] | 1000 | Irreversible | –
CC(CO)[C@H]1CC[C@H]2[C@@H]3CC[C@H]4C(=[N+]=[N-])C(=O)CC[C@]4(C)[C@H]3CC[C@]12C (stereo partly drawn) [(3)] | – | Irreversible | Ki (5-α-Reductase; literature reference, unit inferred): 35 nM; Type of inhibition of steroid 5-α-reductase, in words (5-α-Reductase): potent, time-dependent inhibitor
CCN(CC)C(=O)[C@H]1CC[C@H]2[C@@H]3CC[C@H]4N(C)C(=O)CC[C@]4(C)[C@H]3CC[C@]12C [(4)] | 5 | Reversible | –
C=C1C[C@@H]2[C@H](CC[C@@]3(C)[C@H]2CC[C@]3(OC(C)=O)C(C)=O)[C@@]2(C)CCC(=O)C=C12 [(5)] | 1250 | Irreversible | Type of inhibition of steroid 5-α-reductase, in words (5-α-Reductase): time-dependent inactivator
C[C@]12CC[C@H]3[C@@H](CCC4=CC(=O)CC[C@@]43C)[C@@H]1CC[C@@H]2O [testosterone] | – | – | Km [2]: 4.5 µM
